Literature values, collected in patent publication US9358209B2, “Econazole composition and methods of treatment therewith” (Exeltis USA Dermatology, Inc., priority 2010, dated 2016).

What was measured:
[1] = Liao et al., Yao Xue Xue Bao 28(1):22-7 (1993)
[2] = system: dermatophytes and yeasts; settings: most strains of E. floccosum, M. audouinii, M. canis, M. gypseum, T. mentagrophytes, T. rubrum, T. tonsurans, C. albicans, M. furfur

| Compound | antifungal activity relative to other stereoisomer [1] | activity against dermatophytes and yeasts [2] |
| --- | --- | --- |
| Clc1ccc(CO[C@@H](Cn2ccnc2)c2ccc(Cl)cc2Cl)cc1 [(R)-(−)-econazole] | greater antifungal activity | – |
| Clc1ccc(COC(Cn2ccnc2)c2ccc(Cl)cc2Cl)cc1 (centres unmarked) [Econazole nitrate] | – | has shown activity |
